Laboratory results from ChEMBL document CHEMBL5108052, “Histone Deacetylase and Enhancer of Zeste Homologue 2 Dual Inhibitors Presenting a Synergistic Effect for the Treatment of Hematological Malignancies” (J Med Chem, 2022).

Key:
[1] = Binding affinity to recombinant PRC2 complex (unknown origin) incubated for 90 seconds by surface plasmon resonance assay; set-up: species or system Homo sapiens
[2] = biological target: T1, Protein deacetylase HDAC6 (Homo sapiens, UniProt Q9UBN7); assay: Inhibition of full length recombinant N-terminal GST-tagged human HDAC6 (1 to 1215 residues) expressed in baculovirus infected insect cells incubated for 2 hrs by Multimode microplate reader analysis
T1 sequence (Q9UBN7 whole entry): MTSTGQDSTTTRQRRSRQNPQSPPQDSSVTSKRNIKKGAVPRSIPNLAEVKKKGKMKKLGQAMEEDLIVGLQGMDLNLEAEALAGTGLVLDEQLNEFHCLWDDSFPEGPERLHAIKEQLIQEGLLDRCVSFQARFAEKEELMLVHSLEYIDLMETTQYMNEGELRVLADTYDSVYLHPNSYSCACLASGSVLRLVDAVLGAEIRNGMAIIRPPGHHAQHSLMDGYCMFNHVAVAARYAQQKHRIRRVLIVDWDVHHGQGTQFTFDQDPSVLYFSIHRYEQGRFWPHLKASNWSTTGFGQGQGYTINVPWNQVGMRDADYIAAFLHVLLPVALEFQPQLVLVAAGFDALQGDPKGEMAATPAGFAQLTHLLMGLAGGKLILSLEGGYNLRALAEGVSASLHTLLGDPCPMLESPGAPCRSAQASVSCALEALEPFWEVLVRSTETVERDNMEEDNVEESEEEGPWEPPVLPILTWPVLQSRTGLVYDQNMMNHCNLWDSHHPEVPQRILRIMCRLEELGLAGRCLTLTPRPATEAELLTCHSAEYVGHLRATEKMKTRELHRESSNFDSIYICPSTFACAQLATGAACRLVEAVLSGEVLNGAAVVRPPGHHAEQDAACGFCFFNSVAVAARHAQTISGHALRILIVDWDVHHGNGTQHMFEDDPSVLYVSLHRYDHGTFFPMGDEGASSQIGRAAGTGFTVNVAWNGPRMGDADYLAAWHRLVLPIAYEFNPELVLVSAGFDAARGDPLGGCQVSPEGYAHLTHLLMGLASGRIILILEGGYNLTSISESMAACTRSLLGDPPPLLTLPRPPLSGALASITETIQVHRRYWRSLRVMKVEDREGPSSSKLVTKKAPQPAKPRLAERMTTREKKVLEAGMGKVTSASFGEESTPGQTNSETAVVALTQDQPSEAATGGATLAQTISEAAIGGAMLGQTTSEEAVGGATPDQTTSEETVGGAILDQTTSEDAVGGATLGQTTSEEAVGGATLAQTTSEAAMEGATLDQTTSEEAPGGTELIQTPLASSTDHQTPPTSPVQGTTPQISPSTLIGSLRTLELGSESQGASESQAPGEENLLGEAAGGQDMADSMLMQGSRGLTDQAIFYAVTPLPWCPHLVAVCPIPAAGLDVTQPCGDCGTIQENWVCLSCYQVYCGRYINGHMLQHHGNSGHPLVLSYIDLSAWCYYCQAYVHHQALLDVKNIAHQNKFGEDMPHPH

[3] = Metabolic stability in human liver microsomes assessed as half life measured after 5 mins in presence of NADPH and UDPGA by LC-MS/MS analysis; type: ADME, Microsome
MV4-11 [4] = assay: Induction of apoptosis in human MV4-11 cells assessed as early apoptotic cells at 0.1 uM measured after 48 hrs by Annexin V/7-AAD-dual staining based flow cytometric analysis (reference value: 2.2 %); type: functional
Histone deacetylase 5 = Histone deacetylase 5 (Homo sapiens, UniProt Q9UQL6); assay: Inhibition of recombinant C-terminal his fusion-tagged human HDAC5 (656 to 1122 residues) expressed in baculovirus expression system using trifluoroacetyl lysine as substrate incubated for 2 hrs by Multimode microplate reader analysis
Histone deacetylase 5, sequence (Q9UQL6 whole entry, the tested form may be a part): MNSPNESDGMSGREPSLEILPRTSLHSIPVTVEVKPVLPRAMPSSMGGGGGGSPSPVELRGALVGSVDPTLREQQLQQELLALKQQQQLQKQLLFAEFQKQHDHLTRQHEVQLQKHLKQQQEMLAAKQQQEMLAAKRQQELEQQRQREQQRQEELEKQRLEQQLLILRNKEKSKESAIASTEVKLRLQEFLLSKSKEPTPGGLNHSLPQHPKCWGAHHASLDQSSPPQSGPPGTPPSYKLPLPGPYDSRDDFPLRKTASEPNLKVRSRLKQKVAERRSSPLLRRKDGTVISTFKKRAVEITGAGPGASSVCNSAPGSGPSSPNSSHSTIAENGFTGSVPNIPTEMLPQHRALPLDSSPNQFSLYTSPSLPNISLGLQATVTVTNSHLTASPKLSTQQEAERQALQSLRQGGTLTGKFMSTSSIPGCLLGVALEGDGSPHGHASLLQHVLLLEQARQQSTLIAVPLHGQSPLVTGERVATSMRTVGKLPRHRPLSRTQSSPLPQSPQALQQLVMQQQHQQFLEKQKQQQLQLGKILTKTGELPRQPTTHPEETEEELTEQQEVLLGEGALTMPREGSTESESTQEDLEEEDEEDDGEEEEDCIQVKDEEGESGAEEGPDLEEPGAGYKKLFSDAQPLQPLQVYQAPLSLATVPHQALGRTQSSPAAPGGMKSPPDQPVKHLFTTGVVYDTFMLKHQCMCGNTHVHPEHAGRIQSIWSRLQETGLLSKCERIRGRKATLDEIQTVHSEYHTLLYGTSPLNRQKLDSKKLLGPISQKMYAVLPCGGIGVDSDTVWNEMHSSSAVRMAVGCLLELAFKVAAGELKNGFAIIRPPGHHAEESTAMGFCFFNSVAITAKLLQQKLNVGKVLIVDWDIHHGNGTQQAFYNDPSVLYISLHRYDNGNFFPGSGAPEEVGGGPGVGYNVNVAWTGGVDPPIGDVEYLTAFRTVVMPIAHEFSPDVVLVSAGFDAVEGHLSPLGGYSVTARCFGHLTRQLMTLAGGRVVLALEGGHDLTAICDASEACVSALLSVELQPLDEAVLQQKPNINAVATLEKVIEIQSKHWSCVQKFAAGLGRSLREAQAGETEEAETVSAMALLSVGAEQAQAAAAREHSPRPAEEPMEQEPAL

Histone deacetylase 4 = Histone deacetylase 4 (Homo sapiens, UniProt P56524); assay: Inhibition of N-terminal GST-tagged/C-terminal His-tagged human HDAC4 (627 to 1084 residues) expressed in baculovirus expression system using trifluoroacetyl lysine as substrate incubated for 2 hrs by Multimode microplate reader analysis
Histone deacetylase 4, sequence (P56524 whole entry, the tested form may be a part): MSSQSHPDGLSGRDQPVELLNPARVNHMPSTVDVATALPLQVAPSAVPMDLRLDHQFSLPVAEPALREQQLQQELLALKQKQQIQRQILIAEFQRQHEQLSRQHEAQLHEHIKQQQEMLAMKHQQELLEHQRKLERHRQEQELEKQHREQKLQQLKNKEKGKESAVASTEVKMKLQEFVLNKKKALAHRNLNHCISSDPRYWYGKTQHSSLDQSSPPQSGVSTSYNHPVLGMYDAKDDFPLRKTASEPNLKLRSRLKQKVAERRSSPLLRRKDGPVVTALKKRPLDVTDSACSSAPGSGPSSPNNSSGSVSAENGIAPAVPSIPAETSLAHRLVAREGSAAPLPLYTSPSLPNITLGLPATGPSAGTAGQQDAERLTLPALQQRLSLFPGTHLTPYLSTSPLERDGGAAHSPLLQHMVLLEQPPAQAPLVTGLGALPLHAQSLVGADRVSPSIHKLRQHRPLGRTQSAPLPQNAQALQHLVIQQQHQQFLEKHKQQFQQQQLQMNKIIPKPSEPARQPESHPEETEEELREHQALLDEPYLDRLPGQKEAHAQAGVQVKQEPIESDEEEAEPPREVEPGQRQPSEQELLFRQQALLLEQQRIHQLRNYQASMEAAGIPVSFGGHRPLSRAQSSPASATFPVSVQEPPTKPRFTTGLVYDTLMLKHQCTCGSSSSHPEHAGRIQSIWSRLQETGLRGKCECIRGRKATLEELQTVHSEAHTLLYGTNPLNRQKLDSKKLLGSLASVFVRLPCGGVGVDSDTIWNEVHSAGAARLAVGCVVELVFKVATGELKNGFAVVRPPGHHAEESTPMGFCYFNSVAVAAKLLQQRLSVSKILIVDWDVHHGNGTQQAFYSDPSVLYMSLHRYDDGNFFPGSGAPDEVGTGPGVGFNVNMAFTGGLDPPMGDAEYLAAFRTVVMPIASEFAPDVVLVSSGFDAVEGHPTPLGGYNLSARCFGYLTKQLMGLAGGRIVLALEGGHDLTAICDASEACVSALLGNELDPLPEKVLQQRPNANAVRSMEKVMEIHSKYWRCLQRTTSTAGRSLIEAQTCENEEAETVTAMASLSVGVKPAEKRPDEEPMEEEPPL

Histone deacetylase 11 = biological target: T2, Histone deacetylase 11 (Homo sapiens, UniProt Q96DB2); assay: Inhibition of N-terminal Strep2-tagged recombinant His-tagged human HDAC11 (1 to 347 residues) using trifluoroacetyl lysine as substrate incubated for 2 hrs by Multimode microplate reader analysis
T2 sequence (Q96DB2 whole entry): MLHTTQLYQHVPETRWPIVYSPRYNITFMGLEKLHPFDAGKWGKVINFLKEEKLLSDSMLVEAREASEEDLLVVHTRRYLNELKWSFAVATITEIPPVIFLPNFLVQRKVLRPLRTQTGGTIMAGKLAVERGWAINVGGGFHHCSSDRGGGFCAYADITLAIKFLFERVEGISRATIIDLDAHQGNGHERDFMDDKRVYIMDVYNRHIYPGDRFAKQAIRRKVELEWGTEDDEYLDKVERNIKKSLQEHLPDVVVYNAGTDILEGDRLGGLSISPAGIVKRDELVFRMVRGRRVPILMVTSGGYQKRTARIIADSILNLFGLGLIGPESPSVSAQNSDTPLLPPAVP

Histone deacetylase 2 = Histone deacetylase 2 (Homo sapiens, UniProt Q92769); assay: Inhibition of full length recombinant human C-terminal GST-fusion-tagged human HDAC2 (1 to 488 residues) expressed in insect cells using RHK-K(Ac)-AMC as substrate incubated for 2 hrs by Multimode microplate reader analysis
Histone deacetylase 2, sequence (Q92769 whole entry, the tested form may be a part): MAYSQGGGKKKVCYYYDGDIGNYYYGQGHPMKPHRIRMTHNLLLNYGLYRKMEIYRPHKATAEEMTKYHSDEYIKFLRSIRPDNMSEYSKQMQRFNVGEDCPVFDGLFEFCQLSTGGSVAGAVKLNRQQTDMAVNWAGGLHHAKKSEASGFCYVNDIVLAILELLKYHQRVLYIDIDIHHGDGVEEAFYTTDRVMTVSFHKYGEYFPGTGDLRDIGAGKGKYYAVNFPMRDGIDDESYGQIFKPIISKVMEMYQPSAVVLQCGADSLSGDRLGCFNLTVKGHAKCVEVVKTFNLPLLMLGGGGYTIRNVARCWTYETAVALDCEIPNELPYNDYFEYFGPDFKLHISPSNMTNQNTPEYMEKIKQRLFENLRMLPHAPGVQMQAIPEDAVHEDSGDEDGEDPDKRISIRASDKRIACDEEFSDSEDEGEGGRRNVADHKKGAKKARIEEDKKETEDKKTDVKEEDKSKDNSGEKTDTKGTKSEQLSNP

MV4-11 [5] = assay: Induction of apoptosis in human MV4-11 cells assessed as late apoptotic cells at 0.1 uM measured after 48 hrs by Annexin V/7-AAD-dual staining based flow cytometric analysis (reference value: 1.1 %); type: functional
Histone deacetylase 8 = biological target: T3, Histone deacetylase 8 (Homo sapiens, UniProt Q9BY41); assay: Inhibition of recombinant C-terminal His-fusion tagged/N-terminal Strep2 tagged human HDAC8 (1 to 377 residues) expressed in insect cells using RHK-K(Ac)-K(Ac)-AMC as substrate incubated for 2 hrs by Multimode microplate reader analysis
T3 sequence (Q9BY41 whole entry): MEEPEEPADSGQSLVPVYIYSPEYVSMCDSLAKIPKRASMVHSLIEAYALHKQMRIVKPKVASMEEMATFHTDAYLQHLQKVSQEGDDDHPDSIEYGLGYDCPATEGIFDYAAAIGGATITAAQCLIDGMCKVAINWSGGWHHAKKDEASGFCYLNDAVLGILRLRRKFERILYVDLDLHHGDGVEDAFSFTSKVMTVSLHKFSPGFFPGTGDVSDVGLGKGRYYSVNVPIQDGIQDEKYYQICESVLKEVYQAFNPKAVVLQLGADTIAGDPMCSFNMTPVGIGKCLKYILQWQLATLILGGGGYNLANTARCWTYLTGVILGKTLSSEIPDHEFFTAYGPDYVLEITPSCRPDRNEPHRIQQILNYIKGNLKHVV

Cc1cc(C)c(CNC(=O)c2cc(-c3ccc(N4CCN(c5ncc(C(=O)NO)cn5)CC4)nc3)cc3c2cnn3C(C)C)c(=O)[nH]1
Kd [1]: 39 nM | IC50 [2]: 700 nM | half-life [3]: 15.3 min | Activity (MV4-11 [4]): 5.4% | IC50 (Histone deacetylase 5): 2860 nM | IC50 (Histone deacetylase 4): 5640 nM | IC50 (Histone deacetylase 11): 2560 nM | IC50 (Histone deacetylase 2): 780 nM | Activity (MV4-11 [5]): 4.4% | IC50 (Histone deacetylase 8): 110 nM
